pEC50: −log10 of the molar value.
System: HCMV engineered virus RC256
Assay: microbe, parasite or virus in culture
Type: cell-based, human cytomegalovirus
Settings: Human betaherpesvirus 5, Fibroblast, read-out: Antiviral Activity RC256, first value (EC50)

| SMILES | pEC50 |
| --- | --- |
| Cc1c(NC(=O)N[C@H](C)c2ccccc2)ccc2nc(N[C@H](C)c3ccccc3)oc(=O)c12 [Example 12c, ^6-[[[[(1R)-Phenylethyl]amino]carbonyl]amino]-5-methyl-2-[[(1R)-phenylethyl]amino]-4H-3,1-benzoxazin-4-one] | 4.77 |
| COc1ccc(C[C@H](Nc2nc3ccc(NC(=O)OC(C)(C)C)c(C)c3c(=O)o2)C(=O)N(C)C)cc1 [Example 6d, N-[6-[[(1,1-Dimethylethoxy)carbonyl]amino]-5-methyl-4-oxo-4H-3,1-benzoxazin-2-yl]-O-methyl-L-tyrosine, dimethylamide] | 4.35 |
| CCN(CC)C(=O)[C@H](Cc1ccccc1)Nc1nc2ccc(NC(=O)OC(C)(C)C)c(C)c2c(=O)o1 [Example 6ee, 1,1-Dimethylethyl[2-[[2-(diethylamino)-2-oxo-1S-(phenylmethyl)ethyl]amino]-5-methyl-4-oxo-4H-3,1-benzoxazin-6-yl]carbamate] | 4.59 |
| COC(=O)[C@H](Cc1ccccc1)Nc1nc2ccc(NC(=O)OC(C)(C)C)c(C)c2c(=O)o1 [Example 6a, N-[6-[[(1,1-Dimethylethoxy]carbonyl]amino]-5-methyl-4-oxo-4H-3,1-benzoxazin-2-yl]-L-phenylalanine, methyl ester] | 4.15 |
| Cc1c(CNC(=O)CCc2ccccc2)ccc2nc(N[C@@H](Cc3ccccc3)C(=O)N(C)Cc3ccccc3)oc(=O)c12 [Example 9w, N-Methyl-αS-[[5-methyl-6-[[(1-oxo-3-phenylpropyl)amino]-methyl]-4-oxo-4H-3,1-benzoxazin-2-yl]amino]-N-(phenylmethyl)benzenepropanamide] | 4.89 |
| COc1ccc(C[C@H](Nc2nc3ccc(N)c(C)c3c(=O)o2)C(=O)N(C)Cc2ccccc2)cc1 [Example 8h, αS-[(6-amino-5-methyl-4-oxo-4H-3,1-benzoxazin-2-yl)amino]-N-methyl-4-methoxy-N-(phenylmethyl)benzenepropanamide] | 4.00 |
| COc1ccc(C[C@H](Nc2nc3ccc(CNC(=O)CCc4cccnc4)c(C)c3c(=O)o2)C(=O)N(C)Cc2ccccc2)cc1 [Example 9d, N-[[2-[[1S-[(4-Methoxyphenyl)methyl]-2-[methyl(phenylmethyl)amino]-2-oxoethyl]amino]-5-methyl-4-oxo-4H-3,1-benzoxazin-6-yl]methyl]pyridine-3-propanamide] | 4.39 |
| COC(=O)[C@H](Cc1cc(I)c(OC)c(I)c1)Nc1nc2ccc(NC(=O)OC(C)(C)C)c(C)c2c(=O)o1 [Example 6s, N-[6-[[(1,1-Dimethylethoxy)carbonyl]amino]-5-methyl-4-oxo-4H-3,1-benzoxazin-2-yl]-3,5-diiodo-O-methyl-L-tyrosine, methyl ester] | 4.74 |
| COc1ccc(C[C@H](Nc2nc3ccc(CNC(=O)OC(C)(C)C)c(C)c3c(=O)o2)C(=O)N(C)Cc2ccccc2)cc1 [Example 7i, 1,1-Dimethylethyl[[2-[[1S-[(4-methoxyphenyl)methyl]-2-[methyl(phenylmethyl)amino]-2-oxoethyl]amino]-5-methyl-4-oxo-4H-3,1-benzoxazin-6-yl]methyl]carbamate] | 4.52 |
| COc1ccc(C[C@H](Nc2nc3ccc(CNC(=O)CCc4ccccc4)c(C)c3c(=O)o2)C(=O)N(C)Cc2ccccc2)cc1 [Example 9u, 4-Methoxy-N-methyl-αS-[[5-methyl-6-[[(1-oxo-3-phenylpropyl)amino]methyl]-4-oxo-4H-3,1-benzoxazin-2-yl]amino]-N-(phenylmethyl)benzenepropanamide] | 4.74 |
| Cc1cccc2nc(N[C@@H](C)C(=O)OC(C)(C)C)oc(=O)c12 [Example 1, N-(5-Methyl-4-oxo-4H-3,1-benzoxazin-2-yl)-L-alanine, tert-butyl Ester] | 4.00 |
| COc1ccc(C[C@H](Nc2nc3cccc(C)c3c(=O)o2)C(=O)N(C)Cc2ccccc2)cc1 [Example 1s, αS-[(5-Methyl-4-oxo-4H-3,1-benzoxazin-2-yl)amino]-4-methoxy-N-methyl-N-(phenylmethyl)benzenepropanamide] | 5.15 |
| CC(=O)NCc1ccc2nc(N[C@@H](Cc3ccccc3)C(=O)N(C)Cc3ccccc3)oc(=O)c2c1C [Example 9x, αS-[[6-[(Acetylamino)methyl]-5-methyl-4-oxo-4H-3,1-benzoxazin-2-yl]amino]-N-methyl-N-(phenylmethyl)benzenepropanamide] | 4.80 |
| Cc1c(NC(=O)OC(C)(C)C)ccc2nc(N[C@H](C)c3ccccc3)oc(=O)c12 [Example 6n, 6-[[(1,1-Dimethylethoxy)carbonyl]amino]-5-methyl-2-[[(1R)-phenylethyl]amino]-4H-3,1-benzoxazin-4-one] | 5.00 |
| COC(=O)[C@H](Cc1ccc(I)cc1)Nc1nc2ccc(NC(=O)OC(C)(C)C)c(C)c2c(=O)o1 [Example 6t, N-[6-[[(1,1-Dimethylethoxy)carbonyl]amino]-5-methyl-4-oxo-4H-3,1-benzoxazin-2-yl]-4-iodo-L-phenylalanine, methyl ester] | 4.77 |
| Cc1cccc2nc(N[C@@H](CCCCNC(=O)OCc3ccccc3)C(=O)OC(C)(C)C)oc(=O)c12 [Example 1i, N^α-(5-Methyl-4-oxo-4H-3,1-benzoxazin-2-yl)-N^ε-[(phenylmethoxy)carbonyl)-L-lysine, 1,1-dimethylethyl ester] | 5.05 |

| SMILES | pEC50 |
| --- | --- |
| CCN(Cc1ccccc1)C(=O)[C@H](Cc1ccccc1)Nc1nc2c(Br)cc(N)c(C)c2c(=O)o1 [Example 8g, αS-[(6-Amino-8-bromo-5-methyl-4-oxo-4H-3,1-benzoxazin-2-yl)amino]-N-ethyl-N-(phenylmethyl)benzenepropanamide] | 5.07 |
| COc1ccc(C[C@H](Nc2nc3ccc(CNC(=O)OCc4ccccc4)c(C)c3c(=O)o2)C(=O)N(C)Cc2ccccc2)cc1 [Example 9i, Phenylmethyl[[2-[[1S-[(4-methoxyphenyl)methyl]-2-[methyl(phenylmethyl)amino]-2-oxcethyl]amino]-5-methyl-4-oxo-4H-3,1-benzoxazin-6-yl]methyl]carbamate] | 4.85 |
| COC(=O)[C@H](Cc1ccc(OC)cc1)Nc1nc2cccc(C)c2c(=O)o1 [Example 1r, N-(5-Methyl-4-oxo-4H-3,1-benzoxazin-2-yl)-O-methyl-L-tyrosine, methyl ester] | 4.23 |
| COc1ccc(C[C@H](Nc2nc3ccc(NC(=O)Cc4cccs4)c(C)c3c(=O)o2)C(=O)N2CCCC2)cc1 [Example 11o, N-[2-[[1S-[(4-Methoxyphenyl)methyl]-2-oxo-2-(1-pyrrolidinyl)ethyl]amino]-5-methyl-4-oxo-4H-3,1-benzoxazin-6-yl]thiophene-2-acetamide] | 4.23 |
| COc1ccc(C[C@H](Nc2nc3ccc(CNC(=O)OC(C)(C)C)c(C)c3c(=O)o2)C(=O)N2CCOCC2)cc1 [Example 7h, 1,1-Dimethylethyl[[2-[[1S-[(4-methoxyphenyl)methyl]-2-(4-morpholinyl)-2-oxoethyl]amino]-5-methyl-4-oxo-4H-3,1-benzoxazin-6-yl]methyl]carbamate] | 4.80 |
| Cc1c(CNC(=O)CCc2ccccc2)ccc2nc(N[C@@H](Cc3ccccc3)C(=O)N(C)Cc3cccnc3)oc(=O)c12 [Example 9aa, N-Methyl-αS-[[5-methyl-4-oxo-6-[[(1-oxo-3-phenylpropyl)amino]methyl]-4H-3,1-benzoxazin-2-yl]amino]-N-(3-pyridinylmethyl)benzenepropanamide] | 4.48 |
| COC(=O)[C@H](Cc1ccccc1)Nc1nc2cccc(C)c2c(=O)o1 [Example 1k, N-(5-Methyl-4-oxo-4H-3,1-benzoxazin-2-yl)-L-phenylalanine, methyl ester] | < 4.00 |
| COc1ccc(C[C@H](Nc2nc3ccc(CNC(=O)NC(C)(C)C)c(C)c3c(=O)o2)C(=O)N(C)Cc2ccccc2)cc1 [Example 12d, αS-[[6-[[[[(1,1-Dimethylethyl)amino]carbonyl]amino]methyl]-5-methyl-4-oxo-4H-3,1-benzoxazin-2-yl]amino]-4-methoxy-N-methyl-N-(phenylmethyl)benzenepropanamide] | 4.85 |
| COc1ccc(C[C@H](Nc2nc3cccc(OC)c3c(=O)o2)C(=O)N(C)Cc2ccccc2)cc1 [Example 1u, N-[5-Methoxy-4-oxo-4H-3,1-benzoxazin-2-yl]-O-methyl-L-tyrosine, N-methyl-N-phenylmethylamide] | 4.85 |
| COc1ccc(C[C@H](Nc2nc3ccc(CNC(=O)C(C)(C)C)c(C)c3c(=O)o2)C(=O)N(C)Cc2ccccc2)cc1 [Example 9l, αS-[[6-[[(2,2-Dimethyl-1-oxopropyl)amino]methyl]-5-methyl-4-oxo-4H-3,1-benzoxazin-2-yl]amino]-4-methoxy-N-methyl-N-(phenylmethyl)benzenepropanamide] | 4.19 |
| COC[C@H](Cc1ccccc1)Nc1nc2cccc(C)c2c(=O)o1 [Example 1p, 2-[[2-Methoxy-(1S)-(1-phenylmethyl)ethyl]amino]-5-methyl-4H-3,1-benzoxazin-4-one] | 4.42 |
| Cc1cccc2nc(N[C@@H](Cc3ccc(O)cc3)C(=O)OC(C)(C)C)oc(=O)c12 [Example 1l, N-(5-Methyl-4-oxo-4H-3,1-benzoxazin-2-yl)-L-tyrosine, 1,1-dimethylethyl ester] | 4.46 |
| COC(=O)[C@H](Cc1c[nH]c2ccccc12)Nc1nc2cccc(C)c2c(=O)o1 [Example 1m, N-(5-Methyl-4-oxo-4H-3,1-benzoxazin-2-yl)-L-tryptophan, methyl ester] | 4.25 |
| COc1ccc(C[C@H](Nc2nc3ccc(CNC(=O)OCCN(C)C)c(C)c3c(=O)o2)C(=O)N(C)Cc2ccccc2)cc1 [Example 18c, 2-(Dimethylamino)ethyl[[2-[[1S-[(4-methoxyphenyl)methyl]-2-[methyl(phenylmethyl)amino]-2-oxoethyl]amino]-5-methyl-4-oxo-3,1-benzoxazin-6-yl]methyl]carbamate] | 4.82 |
| COc1ccc(C[C@H](Nc2nc3ccc(CNC(=O)CN4CCCC4)c(C)c3c(=O)o2)C(=O)N(C)Cc2ccccc2)cc1 [Example 9c, N-[[2-[[1S-[(4-Methoxyphenyl)methyl]-2-[methyl(phenylmethyl)amino]-2-oxoethyl]amino]-5-methyl-4-oxo-4H-3,1-benzoxazin-6-yl]methyl]pyrrolidine-1-acetamide] | 5.05 |

Reference: US6683077B2, “2-Amino-benzoxazinones for the treatment of viral infections” (G.D. Searle & Co., priority 1996, dated 2004)
